Source: US20110144155A1, “8-HYDROXYQUINOLINE DERIVATIVES FOR THE TREATMENT OF HEMATOLOGICAL MALIGNANCIES” (priority 2008, published 2011)

Tests used:
LP-1 myeloma cells = assay: Cell viability MTS assay, LP1; type: cell-based; conditions: 72 hours
Experimental: (§1) LP-1 myeloma cells, MDAY-D2 murine leukemia/lymphoma cells, and OCI-AML2 human leukemia cells and A549 lung cancer cells were treated with increasing concentrations of compounds 5AHQ, HNQ, BCQ, COQ, and DiiodoQ (Table 1). 72 hours after incubation, cell viability was determined by an MTS assay. […] . Given the effects on cultured cells, 5AHQ was evaluated in a mouse model of leukemia. K562 cells were injected subcutaneously into NOD SCID mice. […] .

[1] = system: OCI-AML2 human leukemia cells; assay: Cell viability MTS assay, AML2; type: cell-based; conditions: 72 hours
Experimental: as §1

[2] = system: MDAY-D2 murine leukemia/lymphoma cells; assay: Cell viability MTS assay, MDAY-D2; type: cell-based; conditions: 72 hours
Experimental: as §1

A549 lung cancer cells = assay: Cell viability MTS assay, A549; type: cell-based; conditions: 72 hours
Experimental: as §1

[3] = Copper binding: stability constant and Cu:ligand ratio; type: physicochemical
[4] = system: K562 human leukemia cells; assay: K562 leukemia xenograft in NOD/SCID mice; type: in vivo
Experimental: Sublethally irradiated (3.54 Gy) NOD/SCID mice were injected subcutaneously with K562 human leukemia cells. One week later, mice were then treated daily by oral gavage with 5AHQ (50 mg/kg) in water. Three weeks after injection of cells, mice were sacrificed, the subcutaneous tumor excised, and the weight and volume of the tumor measured.
(§2) Given the effects on leukemia and lymphoma cell lines and primary patient samples, the compounds were tested in a leukemia/lymphoma xenograft model. MDAY-D2 leukemia/lymphoma cells were injected intraperitoneally into DBA2 mice. Mice were then treated twice daily with oral clioquinol (100 mg/kg) for 10 days. Ten days after treatment, mice were sacrificed and the weight and volume of the intraperitoneal tumor was measured. […] Similar results were obtained with a K562 leukemia, MDAY-D2 leukemia/lymphoma and OCI AML2 human leukemia xenograft (FIG. 4) K562 leukemia, MDAY-D2 leukemia/lymphoma or OCI AML2 human leukemia cells were injected subcutaneous into sublethally irradiated NOD-Scid mice. Animals were subsequently treated with 5AHQ. The 5AHQ treatment was initiated when tumors reached volumes of 200 mm^3 at which time mice were randomized to receive 100 mg/kg of 5AHQ (treated group) or buffer control (untreated group) for 5 of 7 days. Caliper measurements were performed twice weekly to estimate tumor volume and differences compared between treated and untreated groups.
LP-1 myeloma cells, MDAY-D2 murine leukemia/lymphoma cells, and OCI-AML2 human leukemia cells and A549 lung cancer cells were treated with increasing concentrations of compounds 5AHQ, HNQ, BCQ, COQ, and DiiodoQ (Table 1). 72 hours after incubation, cell viability was determined by an MTS assay. […]. Given the effects on cultured cells, 5AHQ was evaluated in a mouse model of leukemia. K562 cells were injected subcutaneously into NOD SCID mice. […].

[5] = system: MDAY-D2 leukemia/lymphoma; assay: MDAY-D2 subcutaneous tumor in NOD-Scid mice; type: in vivo; conditions: 100 mg/kg for 5 of 7 days
Experimental: as §2

[6] = system: OCI AML2 human leukemia cells; assay: OCI AML2 xenograft in NOD-Scid mice; type: in vivo; conditions: OCI AML2 subcutaneous; 100 mg/kg for 5 of 7 days
Experimental: as §2

myeloma cell lines = assay: Cell viability panel, myeloma cell lines; conditions: read-out: IC50, induced cell death
Experimental: (§3) Cells were cultured at 37° C. with 5% CO2 in a humid incubator.
(§4) Cell viability was assessed with the CellTiter96® Aqueous Non-Radioactive Assay kit according to manufactures' instructions (Promega).
(§5) The effects of clioquinol on the viability of acute leukemia/lymphoma (n=7), myeloma (n=14), and solid tumor (n=5) cell lines as well as primary AML samples (n=6) and primary normal hematopoietic cells (n=3) was tested.

solid tumor cell lines = assay: Cell viability panel, solid tumor cell lines
Experimental: as §3, §4, §5

[7] = system: acute leukemia/lymphoma cell lines; assay: Cell viability panel, acute leukemia/lymphoma cell lines; conditions: read-out: IC50, induced cell death
Experimental: as §3, §4, §5

20S proteasome = molecular target: T1, 20S proteasome (Homo sapiens, UniProt P28074); assay: Proteasome activity (chymotrypsin-like, Suc-LLVY-AMC); type: biochemical
T1 construct: Cellular proteins were extracted from cells with lysis buffer; endogenous in cells
T1 sequence (P28074 60-263): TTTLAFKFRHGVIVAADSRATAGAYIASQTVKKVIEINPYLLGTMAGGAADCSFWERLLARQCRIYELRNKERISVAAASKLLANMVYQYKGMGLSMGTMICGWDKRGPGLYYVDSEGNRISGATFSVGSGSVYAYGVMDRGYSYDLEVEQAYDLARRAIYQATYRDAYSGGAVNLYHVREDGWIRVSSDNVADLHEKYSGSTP
Experimental: Cellular proteins were extracted from cells with lysis buffer (50 mM HEPES pH 7.5, 150 mM NaCl, 2 mM ATP, and 1% Triton X-100). The chymotrypsin-like activity of the proteasome was measured by incubating equal amounts of protein with the preferential chymotrypsin-like substrate Suc-LLVY-AMC in assay buffer (50 mM Tris-HCl, pH 7.5, 150 mM NaCl) for two hours. After incubation, […] and the rate of free AMC was measured over time with a florescent spectrophotometric plate reader (excitation=380 nm, emission=460 nm).

[8] = system: primary AML patient samples; assay: Cell viability, primary AML samples; type: cell-based; conditions: Homo sapiens; in 6/7 primary AML patient samples; forty-eight hours; read-out: IC50, induced cell death
[9] = system: primary normal hematopoietic cells; assay: Cell viability, primary normal hematopoietic cells; type: cell-based; conditions: forty-eight hours
cyclin D2 promoter = assay: High throughput screen for inhibitors of cyclin D2 transactivation (luciferase); type: cell-based, Mouse; conditions: NIH3T3 cells with c-maf; ~5 μM; sixteen hours
Text: The promoter of cyclin D2 (−894 to −4), containing c-maf responsive element sequence (MARE), was cloned from HeLa cell genomic DNA and subcloned into the pGL2 luciferase reporter vector (Promega, Madison, Wis.). This construct was co-transfected with pcDNA3.1 containing a neomycin resistance gene into NIH3T3 wild type cells and NIH3T3 cells stably over-expressing c-maf-IRES-GFP. Cells stably expressing c-maf, GFP, and luciferase were selected for further application.
NIH3T3 cells stably expressing c-maf and the cyclin D2 promoter driving luciferase (13,000 cells per well) were plated in 96-well plates by the Biomek FX liquid handler (Beckman, Fullerton, Calif.). The same workstation was used for plate formatting and reagent distribution. […] After incubation, cyclin D2 transactivation was assessed by the luciferase assay and viability was assessed by the MTS assay.
Luciferase activity was assessed according to the manufacturer's instructions (Promega, Madison, Wis.). […] After 10 min incubation, an equal volume of Bright-Glo Luciferase substrate (Promega) was added and the luminescence signal was detected with a 96-well Luminoskan luminescence plate reader (Thermo Labsystem, Waltham, Mass.) with a 5 second integration. […]

p21 and p27 = p21 and p27 expression in myeloma and leukemia cells; type: cell-based; conditions: low micromolar concentrations
Experimental: To prepare cytosolic extracts, NIH3T3 cells and myeloma cells were washed with phosphate-buffered saline (PBS, pH 7.4) and suspending in lysis buffer [10 mM Tris (pH 7.4), 150 mM NaCl, 0.1% Triton X-100, 0.5% sodium deoxycholate, and 5 mM EDTA] containing protease inhibitors (Complete tablets, Roche, Indianapolis, Ind.). Protein concentrations were determined by the Bradford assay. Immunoblot assays were performed by subjecting equal amounts of protein to SDS-PAGE gels followed by transfer to Nitrocellulose membranes. Membranes were probed with polyclonal rabbit anti-human cyclin D2 (0.5 μg/ml, both from Santa Cruz Biotech, Santa Cruz, Calif.), or monoclonal mouse-anti human p21 (1:200 v/v, Santa Cruz Biotech), monoclonal mouse-anti human p27 (1:2,500 v/v BD Transduction Laboratories), polyclonal mouse-anti human ubiquitin (1:2,000 v/v Calbiochem) and monoclonal mouse-anti-β-actin (1:10,000 v/v) (Sigma, St. Lois, Mo.). […] Detection was performed by the Enhanced Chemical Luminescence (ECL) method (Pierce, Rockford, Ill.).
Cyclin D2 is over-expressed in multiple myeloma (MM) and a subset of high-risk patients with acute myeloid leukemia (AML), contributing to their pathogenesis and chemoresistance (17, 18) (19). […] Sixteen hours after the addition of the compounds, luciferase expression was measured as a marker of cyclin D2 transactivation. […]

[10] = system: myeloma and leukemia cells; assay: Cell cycle analysis; type: cell-based; conditions: low micromolar concentrations
Experimental: Cells were harvested, washed with cold PBS, suspended in 70% cold ethanol and incubated overnight at −20° C. Cells were then treated with 100 ng/ml of DNase-free RNase (InvitroGen) at 37° C. for 30 min, washed with cold PBS, and resuspended in PBS with 50 μg/ml of propidium iodine. DNA content was analyzed by flow cytometry (FACSCalibur, Becton Dickinson, Florida, USA). The percentage of cells in each phase of the cell cycle was calculated with ModiFit software (Becton Dickinson).
Cyclin D2 is over-expressed in multiple myeloma (MM) and a subset of high-risk patients with acute myeloid leukemia (AML), contributing to their pathogenesis and chemoresistance (17, 18) (19). One of the regulators of cyclin D2 is the oncogene c-maf that is also frequently over-expressed in MM (27). Therefore, it was sought to identify c-maf dependent and independent inhibitors of cyclin D2. To identify such small molecule inhibitors, a high throughput chemical genomics screen was developed. […] Sixteen hours after the addition of the compounds, luciferase expression was measured as a marker of cyclin D2 transactivation. […]

[11] = system: MDAY-D2 leukemia/lymphoma cells; type: in vivo, mice; conditions: oral 100 mg/kg twice daily, 10 days
Experimental: DBA-2 mice were injected intraperitoneally with MDAY-D2 murine leukemia cells. Mice were then treated twice daily by oral gavage with clioquinol (100 mg/kg) dissolved in intralipid or intralipid control. Ten days after treatment, mice were sacrificed, the intraperitoneal tumor excised, and the weight and volume of the tumor measured.
as §2, with “Caliper measurements were performed twice weekly to estimate tumor volume and differences compared between treated and untreated groups.” left out

[12] = after oral administration, patients; cited from earlier work
proteasome = molecular target: T2, proteasome (Homo sapiens, UniProt P28074); assay: Proteasome inhibition in cells; conditions: resistant cells (for clioquinol including normal hematopoietic cells)
T2 sequence (P28074 60-263): T1 sequence (P28074 60-263)
Experimental: Cellular proteins were extracted from cells with lysis buffer (50 mM HEPES pH 7.5, 150 mM NaCl, 2 mM ATP, and 1% Triton X-100). The chymotrypsin-like activity of the proteasome was measured by incubating equal amounts of protein with the preferential chymotrypsin-like substrate Suc-LLVY-AMC in assay buffer (50 mM Tris-HCl, pH 7.5, 150 mM NaCl) for two hours. After incubation, was added and the rate of free AMC was measured over time with a florescent spectrophotometric plate reader (excitation=380 nm, emission=460 nm).

SMILES	LD50 whole cell, LP1 (LP-1 myeloma cells) [μm]	LD50 whole cell, AML2 [1] [μm]	LD50 whole cell, MDAY-D2 [2] [μm]	LD50 whole cell, A549 (A549 lung cancer cells) [μm]	K (stability) [3]	IC50 (myeloma cell lines) [µM]	IC50 [7] [µM]	IC50 (20S proteasome) [µM]	further results
Nc1ccc(O)c2ncccc12 [5AHQ, 5-amino-8-hydroxyquinoline]	12.5	3.9	7.8	31.25	9.84	< 15	< 15		tumor weight and volume ([4]; 50 mg/kg in water, oral gavage, three weeks after injection of cells): reduced tumor weight and volume; tumor growth (volume) ([4]; K562 subcutaneous, 100 mg/kg for 5 of 7 days): delayed tumor growth; efficacy dose in mice xenografts ([4]; mouse, in vivo): 50 mg/kg/day; toxicity ([4]; mouse, in vivo): No significant toxicity; tumor growth (volume) [5]: delayed tumor growth; tumor growth (volume) [6]: delayed tumor growth; IC50 (solid tumor cell lines; read-out: IC50, induced cell death): < 15 µM
Oc1c(Br)cc(Cl)c2cccnc12 [BCQ, 7-bromo-5-chloro-8-hydroxyquinoline]	31.25				10.24			15.6	
Oc1ccc(Cl)c2cccnc12 [COQ, 5-chloro-8-hydroxyquinoline]	31.25	3.9	3.9	62.5	8.89			62.5	
Oc1c(I)cc(Cl)c2cccnc12 [Clioquinol, 5-chloro-7-iodo-8-hydroxyquinoline, reference compound]	31.25	3.9	15.6	250	9.06	< 20	< 20	12.5	IC50 [8]: < 20 µM; samples with induced cell death at IC50<20 μM [9]: 0/3; inhibition of cyclin D2 promoter (luciferase) (cyclin D2 promoter): c-maf independent inhibitors of the cyclin D2 promoter; p21 and p27 expression (p21 and p27): increased expression of p21 and p27; cell cycle effect [10]: arrested cells in the G1 phase; tumor progression [11]: delayed tumor progression; trough serum concentration [12]: 20 µM; proteasomal inhibition in compound-resistant cells (proteasome): no proteasomal inhibition was detected; cell lines with induced cell death at IC50<20 μM (solid tumor cell lines; solid tumor, forty-eight hours): 0/5
Oc1c(I)cc(I)c2cccnc12 [DiiodoQ, reference compound]		62.5	31.25	250				> 1000	
O=[N+]([O-])c1ccc(O)c2ncccc12 [HNQ, 8-hydroxy-5-nitroquinoline]	15.6				9.13			15.6	
